Paper PMC5048153 (Scientific Reports, 2016)
Where a name gives a salt, the structure may show the parent alone.

Assays:
[1] = tested on: corticosterone-injured PC12 cells; assay: Protective effects on corticosterone-injured PC12 cells (MTT); assay type: cell-based, rat; design: key to PR (protection rate), Table S1: compounds did not shown protection effects on corticosterone-injured PC12 cells; settings: 24 h after treatment; for PR (protection rate), Table S1: 1.25µM; for PR (protection rate): 200 μM corticosterone
Description: PC12 cells were purchased from American Type Culture Collection and were maintained in DMEM medium supplemented with penicillin (100 unit/ml), streptomycin (100 μg/ml), 5% fetal bovine serum (FBS), and 10% horse serum at 37 °C in humidified atmosphere with 5% CO2. The detailed procedures were performed referring to the reported literatures. Briefly, PC12 cells of logarithmic growth phase were collected, re-suspended and then seeded at a density of 1 × 10^5 cells per well in 96-well plates and cultured in the DMEM medium with 5% horse serum, 10% FBSfor 24 h.
After incubation with compounds, 20 μl of 5 mg/ml MTT solution was added to each well and cultured at 37 °C for 2 h–4 h. Then, the culture medium was removed, and 150 μl dimethyl sulfoxide(DMSO) was added to each well for 15 min at room temperature. The absorbance of each well was measured at 570 nm using a microplate reader. The protective rates (PR) were calculated according to equation (1).

HEK293 cells = assay: Cytotoxicity on HEK293 cells (MTT); assay type: cell-based, human; settings: after treatment; for IR (inhibitory rate) HEK293: 100μM; for inhibition at 100 µM: Homo sapiens, HEK293, 100μM, read-out: IR (inhibitory rate) HEK293
Description: (§1) Human normal hepatic L02 cells, human embryonic kidney cell line 293 cells (HEK293) and Rattus myoblast cell line H9C2 cells were respectively seeded in 96-well plates at a density of 4 × 10^3 cells per well and cultured in the 1640 or DMEM medium, with the supplement of 10% fetal bovine serum, penicillin (100 unit/ml), streptomycin (100 μg/ml) in a humidified incubator with 5% CO2 for 24 h. […] The cytotoxicities of the compounds were evaluated by MTT method.

L02 cells = assay: Cytotoxicity on L02 cells (MTT); assay type: cell-based, human; settings: after treatment; for IR (inhibitory rate) L02: 100μM; for inhibition at 100 µM: Homo sapiens, L02, 100μM, read-out: IR (inhibitory rate) L02
Description: as §1

Row | Molecule | PR (protection rate), Table S1 [1] | IR (inhibitory rate) HEK293 (HEK293 cells) [%] | IR (inhibitory rate) L02 (L02 cells) [%] | PR (protection rate) ([1]; 5 μM) [%] | PR (protection rate) ([1]; […]) [%] | inhibition at 100 µM (HEK293 cells) [%] | inhibition at 100 µM (L02 cells) [%] | PR (protection rate) ([1]; 1.25 μM)
1 | 1-(3,5-Dimethylpyridin-4-yl)-3-(2-(7-methoxy-3,4-dihydroisoquinolin-1-yl)ethyl)urea oxalate [6b-11] | - | 28.1 | 27.3 |  |  |  |  | 
2 | 2,6-Difluoro-N-(2-(7-methoxy-3,4-dihydroisoquinolin-1-yl)ethyl)benzamide oxalate [6a-34] | - | 47.1 | 44.0 |  |  |  |  | 
3 | 2-(3-(2-(7-Methoxy-3,4-dihydroisoquinolin-1-yl)ethyl)ureido)thiazole-5-carboxylate oxalate [6b-8] | - | 49.2 | 50.0 |  |  |  |  | 
4 | 2-((2-(7-Methoxy-3,4-dihydroisoquinolin-1-yl)ethyl)carbamoyl)phenylacetate oxalate [6a-20] | - | 57.1 | 54.9 |  |  |  |  | 
5 | 4-Fluoro-N-(2-(7-methoxy-3,4-dihydroisoquinolin-1-yl)ethyl)benzamide oxalate [6a-33] | - | 43.0 | 45.2 |  |  |  |  | 
6 | CCC(=O)NCCC1=NCCc2ccc(OC)cc21.O=C(O)C(=O)O [6a-2, N-(2-(7-Methoxy-3,4-dihydroisoquinolin-1-yl)ethyl) propionamide oxalate] |  |  |  | 3.1 | 18.1 | 23.4 | 12.4 | 
7 | COc1ccc2c(c1)C(CCNC(=O)C(F)(F)F)=NCC2 [6a-3, 2,2,2-Trifluoro-N-(2-(7-methoxy-3,4-dihydroisoquinolin-1-yl)ethyl) acetamideoxalate] | -^b |  |  |  |  | 60.1 | 59.6 | 
8 | COc1ccc2c(c1)C(CCNC(=O)C1CC1)=NCC2 [6a-4, N-(2-(7-Methoxy-3,4-dihydroisoquinolin-1-yl)ethyl) cyclopropanecarboxamideoxalate] | - |  |  |  |  | 46.2 | < 0 | 
9 | COc1ccc2c(c1)C(CCNC(=O)c1ccc(Cl)cc1)=NCC2 [6a-5, 4-Chloro-N-(2-(7-methoxy-3,4-dihydroisoquinolin-1-yl)ethyl) benzamideoxalate] | 4.1% |  |  |  |  | 60 | 67 | 
10 | COc1ccc(C(=O)NCCC2=NCCc3ccc(OC)cc32)cc1 [6a-6, 4-Methoxy-N-(2-(7-methoxy-3,4-dihydroisoquinolin-1-yl)ethyl) benzamideoxalate] | - |  |  |  |  | 34.1 | 24.9 | 
11 | COc1ccc2c(c1)C(CCNC(=O)c1ccccc1Cl)=NCC2 [6a-7, 2-Chloro-N-(2-(7-methoxy-3,4-dihydroisoquinolin-1-yl)ethyl) benzamide oxalate] | - |  |  |  |  | 27.4 | 23.5 | 
12 | COc1ccc2c(c1)C(CCNC(=O)c1ccc(C(F)(F)F)cc1)=NCC2 [6a-8, N-(2-(7-Methoxy-3,4-dihydroisoquinolin-1-yl)ethyl) -4-(trifluoromethyl) benzamideoxalate] | - |  |  |  |  | 38.4 | 60.6 | 
13 | COc1ccc2c(c1)C(CCNC(=O)c1ccco1)=NCC2 [6a-9, N-(2-(7-Methoxy-3,4-dihydroisoquinolin-1-yl)ethyl) furan-2-carboxamideoxalate] |  |  |  | 7.9 | 14.9 | 60.1 | 52.6 | 
14 | COc1ccc2c(c1)C(CCNC(=O)c1ccccc1)=NCC2.O=C(O)C(=O)O [6a-10, N-(2-(7-Methoxy-3,4-dihydroisoquinolin-1-yl)ethyl)benzamide oxalate] | - |  |  |  |  | 27.6 | 22.5 | 
15 | COc1ccc2c(c1)C(CCNC(=O)c1ccc(F)cc1)=NCC2 [6a-12, 4-Fluoro-N-(2-(7-methoxy-3,4-dihydroisoquinolin-1-yl)ethyl) benzamide oxalate] | 0.7% |  |  |  |  | 43.8 | 19.1 | 
16 | COc1ccc2c(c1)C(CCNC(=O)c1ccc(C(C)C)cc1)=NCC2 [6a-13, 4-Isopropyl-N-(2-(7-methoxy-3,4-dihydroisoquinolin-1-yl)ethyl) benzamide oxalate] | - |  |  |  |  | 57.6 | 43 | 
17 | COc1ccc(C(=O)NCCC2=NCCc3ccc(OC)cc32)c(OC)c1 [6a-15, 2,4-Dimethoxy-N-(2-(7-methoxy-3,4-dihydroisoquinolin-1-yl)ethyl) benzamide oxalate] | 3.7% |  |  |  |  | 56.1 | 49.5 | 
18 | COc1ccc2c(c1)C(CCNC(=O)c1ccc(C(C)=O)cc1)=NCC2 [6a-16, 4-Acetyl-N-(2-(7-methoxy-3,4-dihydroisoquinolin-1-yl)ethyl) benzamideoxalate] | 6.1% |  |  |  |  | < 20 | < 20 | 
19 | COc1ccc2c(c1)C(CCNC(=O)Cc1cc3ccccc3[nH]1)=NCC2.O=C(O)C(=O)O [6a-17, 2-(1H-Indol-2-yl)-N-(2-(7-methoxy-3,4-dihydroisoquinolin-1-yl)ethyl)acetamide oxalate] | - |  |  |  |  | 55.8 | 42.2 | 
20 | COc1ccc2c(c1)C(CCNC(=O)c1ccc(C(C)(C)C)cc1)=NCC2.O=C(O)C(=O)O [6a-18, 4-(tert-Butyl)-N-(2-(7-methoxy-3,4-dihydroisoquinolin-1-yl)ethyl)benzamide oxalate] | - |  |  |  |  | 53.3 | 63.2 | 
21 | COc1ccc2c(c1)C(CCNC(=O)c1ccc(C#N)cc1)=NCC2.O=C(O)C(=O)O [6a-19, 4-Cyano-N-(2-(7-methoxy-3,4-dihydroisoquinolin-1-yl)ethyl)benzamide oxalate] | - |  |  |  |  | 55.9 | 45 | 
22 | COc1ccc2c(c1)C(CCNC(=O)c1cccnc1Cl)=NCC2.O=C(O)C(=O)O [6a-21, 2-Chloro-N-(2-(7-methoxy-3,4-dihydroisoquinolin-1-yl)ethyl)nicotinamide oxalate] | 15.2% |  |  |  |  | 49.8 | 58.8 | above 10%
23 | COc1ccc2c(c1)C(CCNC(=O)c1cccc(C)c1)=NCC2.O=C(O)C(=O)O [6a-22, N-(2-(7-Methoxy-3,4-dihydroisoquinolin-1-yl)ethyl)-3-methylbenzamide oxalate] | - |  |  |  |  | 22.2 | 31.8 | 
24 | COc1ccc2c(c1)C(CCNC(=O)c1cccnc1)=NCC2.O=C(O)C(=O)O [6a-23, N-(2-(7-Methoxy-3,4-dihydroisoquinolin-1-yl)ethyl)nicotinamide oxalate] | - |  |  |  |  | 57.8 | 66.9 | 
25 | COc1ccc2c(c1)C(CCNC(=O)c1ccccn1)=NCC2.O=C(O)C(=O)O [6a-24, N-(2-(7-Methoxy-3,4-dihydroisoquinolin-1-yl)ethyl)picolinamide oxalate] | - |  |  |  |  | 62.9 | 55.8 | 
26 | COc1ccc2c(c1)C(CCNC(=O)c1ccc(C)cc1)=NCC2.O=C(O)C(=O)O [6a-25, N-(2-(7-Methoxy-3,4-dihydroisoquinolin-1-yl)ethyl)-4-methylbenzamide oxalate] | - |  |  |  |  | 65.7 | 50.8 | 
27 | COc1ccc2c(c1)C(CCNC(=O)c1ccc3ccccc3n1)=NCC2.O=C(O)C(=O)O [6a-26, N-(2-(7-Methoxy-3,4-dihydroisoquinolin-1-yl)ethyl)quinoline-2-carboxamide oxalate] | - |  |  |  |  | 48.6 | 42.7 | 
28 | COc1ccc2c(c1)C(CCNC(=O)Nc1ccc(Cl)c(C(F)(F)F)c1)=NCC2 [6b-9, 1-(4-Chloro-3-(trifluoromethyl)phenyl)-3-(2-(7-methoxy-3,4-dihydroisoquinolin-1-yl)ethyl)urea oxalate] |  |  |  |  |  | 31.6 | 25.7 | 
29 | COc1ccc2c(c1)C(CCNC(=O)NC(C)C)=NCC2 [6b-10, 1-Isopropyl-3-(2-(7-methoxy-3,4-dihydroisoquinolin-1-yl)ethyl)urea oxalate] |  |  |  |  |  | 34.7 | 31.9 | 
30 | COc1ccc2c(c1)C(CCNC(=O)Nc1ccc(Cl)cc1[N+](=O)[O-])=NCC2 [6b-16, 1-(4-Chloro-2-nitrophenyl)-3-(2-(7-methoxy-3,4-dihydroisoquinolin-1-yl)ethyl)urea oxalate] |  |  |  |  |  | 52 | 53.2 | 
